In PMC1971568 (British Journal of Cancer, 1990):
Read-outs that look alike come from different tables or passages of the source.

Key:
[1] = in vivo, ip
[2] = test system: LS174T colonic cell line; parameters: method as in Springer et al., 1990; settings: ref Springer et al., 1990; cited from earlier work
[3] = test system: carboxypeptidase G2 (CPG2); parameters: method as in Bagshawe et al., 1988; settings: ref Bagshawe et al., 1988; cited from earlier work
[4] = Localisation of antibody-enzyme conjugate: enzyme activity in tissues, CC3 model; settings: tissue homogenate incubated at 37C with prodrug 34 µg ml-1 (87 µM)
[5] = Nu/Nu, mouse, in vivo, iv
[6] = test system: CC3 tumours; parameters: method as in Bagshawe et al., 1988; settings: single course of two phase prodrug therapy (antibody-enzyme conjugate then prodrug); ref Bagshawe et al., 1988; cited from earlier work
[7] = test system: human JAR choriocarcinoma cell line; settings: cited from earlier work

For `O=C(O)CC[C@H](NC(=O)c1ccc(N(CCCl)CCCl)cc1)C(=O)O` [prodrug, 4-(bis (2-chloroethyl)amino) benzoyl-L-glutamic acid], which “AUC, area under plasma concentration versus time curve from zero to infinity” value ([1]; Nu/Nu, mouse) is on record?
Its value is 7.09.

And the “Cl, total body clearance” value ([1]; Nu/Nu, mouse, 41 umol/kg)?
The value was 1.18.

What about the “Vd, apparent volume of distribution” value ([1]; Nu/Nu, mouse, 41 umol/kg) of the same compound?
The value was 0.07 L.

And the AUC in liver ([1]; 41 umol/kg)?
Its AUC in liver is 62.

And the AUC in tumour ([1]; 41 umol/kg)?
The AUC in tumour was 3.3.

And the “Cytotoxicity against LS174T cells in culture” value [2]?
Its value is “very little cytotox- icity”.

And the “Affinity of the enzyme for prodrug” value [3]?
The value was “very high affinity”.

What about the “Activation of prodrug by tissues of mice which did not receive conjugate” value [4] of the same compound?
The value was “No activation”.

What about the “AUC, area under plasma concentration versus time curve from zero to infinity” value [5] of the same compound?
The value was 15.4.

And the “Growth of CC3 tumours” value [6]?
The value was “marked inhibition of growth”.

What about the “Cytotoxicity against JAR cells in culture” value [7] of the same compound?
Its value is “very little cytotox- icity”.
